These results are taken from patent US8652533B2 (priority 2004, dated 2014).

One experiment deals with SARS (Toronto-2 Strain). As to the kind of experiment: microbe, parasite or virus in culture. The class given is cell-based, SARS coronavirus (SARSCoV). To be noted: for ACTIVITY: conc. 1 μM; for cytoprotective effect in the assay (in words): tested concentration (1 μM).
In another experiment the test system is SARSCoV, strain Urbani. The class given is cell-based, SARS coronavirus (SARSCoV).

For the molecule `Oc1cc(O)c2c(c1)O[C@H](c1ccc(O)c(O)c1)[C@@H](O)C2` [(+)-Catechin], in the experiment on SARS (Toronto-2 Strain), the ACTIVITY result is recorded as “Inactive” and the “cytoprotective effect in the assay (in words)” value (“cytoprotective effect” below) is reported as “not”.
As for `Oc1cc(O)c2c(c1)O[C@@H](c1ccc(O)c(O)c1)[C@@H](O)C2` [(+)-Epicatechin], in the experiment on SARS (Toronto-2 Strain), the ACTIVITY result was “Inactive”.
`Oc1cc(O)c2c(c1)O[C@H](c1cc(O)c(O)c(O)c1)[C@@H](O)C2` [(+)-Gallocatechin]: in the experiment with SARS (Toronto-2 Strain), the ACTIVITY entry is “Inactive” and the “cytoprotective effect” value is “not”.
For `O=C(O[C@@H]1Cc2c(O)cc(O)cc2O[C@H]1c1ccc(O)c(O)c1)c1cc(O)c(O)c(O)c1` [(−)-Catechin Gallate], in the experiment with SARS (Toronto-2 Strain), the ACTIVITY result is recorded as “Active”.
For the molecule `O=C(O[C@@H]1Cc2c(O)cc(O)cc2O[C@@H]1c1ccc(O)c(O)c1)c1cc(O)c(O)c(O)c1` [(−)-Epicatechin Gallate], in the experiment with SARS (Toronto-2 Strain), the ACTIVITY entry is given as “Active” and the “cytoprotective effect” value was “had cytoprotective effect”.
On the same counts, the results for `Oc1cc(O)c2c(c1)O[C@H](c1ccc(O)c(O)c1)[C@H](O)C2` [(−)-Epicatechin] are “Inactive” and “not”.
On the same counts, the results for `Oc1cc(O)c2c(c1)O[C@H](c1cc(O)c(O)c(O)c1)[C@H](O)C2` [(−)-Epigallocatechin] are “Inactive” and “not”.
As to `Oc1cc(O)c2c(c1)O[C@@H](c1cc(O)c(O)c(O)c1)[C@H](O)C2` [(−)-Gallocatechin], in the experiment on SARS (Toronto-2 Strain), the ACTIVITY entry was “Inactive”.
Broadly, the inhibition is the drop in the measured response relative to a control, in per cent. As for `O=C(O[C@@H]1Cc2c(O)cc(O)cc2O[C@@H]1c1cc(O)c(=O)c2c(O)c(O)cc([C@H]3Oc4cc(O)cc(O)c4C[C@H]3OC(=O)c3cc(O)c(O)c(O)c3)c2c1)c1cc(O)c(O)c(O)c1` [Theaflavindigallate], the inhibition at 1 µM in the experiment with SARS (Toronto-2 Strain) (Severe acute respiratory syndrome coronavirus, Vero 76, 72 h, read-out: % CPE (INHIBITION)) is 100%. Further, the ACTIVITY entry in the experiment with SARS (Toronto-2 Strain) was “Active”.
In the case of `O=c1c(O)cc([C@H]2Oc3cc(O)cc(O)c3C[C@H]2O)cc2c([C@H]3Oc4cc(O)cc(O)c4C[C@H]3O)cc(O)c(O)c12` [free Theaflavin], the ACTIVITY entry in the experiment with SARS (Toronto-2 Strain) is “Active”.
On the same count and under the same terms, next, (−)-Catechin: “Inactive”.
Take (−)-Epigallocatechin Gallate: in the experiment on SARS (Toronto-2 Strain), the ACTIVITY entry is given as “Active” and the “cytoprotective effect” value is recorded as “had cytoprotective effect”.
On the same counts, the results for (−)-Gallocatechin Gallate are “Active” and “had cytoprotective effect”.
On to Theaflavindigallate-A, for which the ACTIVITY entry in the experiment with SARS (Toronto-2 Strain) is given as “Inactive”.
Consider Theaflavindigallate-B, for which, in the experiment on SARS (Toronto-2 Strain), the ACTIVITY entry was “Inactive”.
In the case of catechin, in the experiment on SARSCoV, strain Urbani, the “direct virucidal effect (in words)” value was “very inhibitory to the virus”.
